Each structure is given as a SMILES string.

For one data set, the system named is Meloidogyne incognita. Nature of the data set: Meloidogyne incognita test (MELGIN). The data set is classed as in vivo. Particulars: application rate of 20 ppm; after 14 days, by formation of galls. As to the method: Meloidogyne Incognita Test (MELGIN)
• Solvent: 125.0 parts by weight of acetone
To produce an appropriate active ingredient formulation, 1 part by weight of active ingredient is mixed with the specified amounts of solvent and the concentrate is diluted to the desired concentration with water.
Vessels are filled with sand, active ingredient solution, an egg/larvae suspension of the southern root-knot nematode (Meloidogyne incognita) and lettuce seeds. The lettuce seeds germinate and the plants develop. The galls develop on the roots
After 14 days, the nematicidal efficacy in % is determined by the formation of galls. 100% means that no galls have been found; 0% means that the number of galls on the treated plants corresponds to the untreated control.

Data set [1] in a line: log P by HPLC (OECD Guideline 117), method [a] acidic range. As to conditions: for logP[a]: HPLC, method [a] acidic range; for chromatographic logP: reversed-phase C18 HPLC column, acidic range. The data set is classed as physicochemical. As to the method:
(§1) The log P values were determined analogously to OECD Guideline 117 (EC Directive 92/69/EEC) by HPLC (high-performance liquid chromatography) using reversed-phase columns (C 18), by the following methods:
[a] The LC-MS determination in the acidic range is effected at pH 2.7 with 0.1% aqueous formic acid and acetonitrile (contains 0.1% formic acid) as eluents; linear gradient from 10% acetonitrile to 95% acetonitrile.

Data set [2] can be described thus: log P by HPLC (OECD Guideline 117), method [b] neutral range. As to conditions: HPLC; for logP[b]: method [b] neutral range; for chromatographic logP: reversed-phase C18 HPLC column, neutral range, pH 7.8. The data set is classed as physicochemical. As to the method:
as §1
[b] The LC-MS determination in the neutral range is effected at pH 7.8 with 0.001 molar aqueous ammonium hydrogencarbonate solution and acetonitrile as eluents; linear gradient from 10% acetonitrile to 95% acetonitrile.

In a further data set the test system is Phaedon cochleariae. Nature of the data set: Phaedon cochleariae spray test (PHAECO). The data set is classed as in vivo. Particulars: application rate of 500 g/ha, after 7 days; for pest or weed control at 500 g/ha: Phaedon cochleariae, 168 h, read-out: efficacy. As to the method: Phaedon cochleariae—Spray Test (PHAECO)
• Solvent: 78.0 parts by weight of acetone • 1.5 parts by weight of dimethylformamide • Emulsifier: 0.5 part by weight of alkylaryl polyglycol ether
To produce an appropriate active ingredient formulation, 1 part by weight of active ingredient is mixed with the specified amounts of solvent and emulsifier, and the concentrate is diluted to the desired concentration with emulsifier-containing water.
Discs of Chinese cabbage leaves (Brassica pekinensis) are sprayed with an active ingredient formulation of the desired concentration and, after drying, populated with larvae of the mustard beetle (Phaedon cochleariae).
After 7 days, the efficacy in % is determined 100% means that all beetle larvae have been killed; 0% means that none of the beetle larvae have been killed.

The next data set has as its system Tetranychus urticae. Nature of the data set: Tetranychus urticae spray test, OP-resistant (TETRUR). The data set is classed as in vivo. As to conditions: application rate of 500 g/ha, after 6 days; for pest or weed control at 500 g/ha: Tetranychus urticae, 144 h, read-out: efficacy. The gist of the method: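 Mortality as % efficacy (0% = no mites killed) read 6 days after spraying. Formulation: active ingredient in acetone/dimethylformamide plus emulsifier, diluted with emulsifier-containing water, applied to Phaseolus vulgaris leaf discs carrying every life stage of OP-resistant spider mites.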

The next data set concerns Boophilus microplus. Nature of the data set: Boophilus microplus injection test (BOOPMI Inj). As to conditions: application rate of 20 μg/animal, assessed after 7 days by laying of fertile eggs. The data set is classed as in vivo. As to the method: Use Examples Boophilus microplus Injection Test (BOOPMI Inj) • Solvent: dimethyl sulphoxide
To prepare an appropriate active ingredient formulation, 10 mg of active ingredient are mixed with 0.5 ml of solvent and the concentrate is diluted with solvent to the desired concentration.
1 μl of the active ingredient solution is injected into the abdomen of 5 engorged adult female cattle ticks (Boophilus microplus). The animals are transferred into dishes and kept in a climate-controlled room.
The efficacy is assessed after 7 days by laying of fertile eggs. Eggs which are not visibly fertile are stored in a climate-controlled cabinet until the larvae hatch after about 42 days.
An efficacy of 100% means that none of the ticks has laid any fertile eggs; 0% means that all the eggs are fertile.

Where [3] appears, read: pH 2.7, HPLC method [a], read-out: logP[a].
Where [4] appears, read: pH 2.7, HPLC, pH 2.7, read-out: log P[a].

In turn, `COc1nn(-c2cc(SCC(F)(F)F)c(Cl)cc2Cl)c(=O)n1C1CC1` [Example 107] came in with a nematicidal efficacy in the data set with Meloidogyne incognita of 90%. In addition, the “logP[a]” value in data set [1] was found to be 3.46. Also, the “logP[b]” value in data set [2] was 3.42.
Taken in the same sequence, the figures for `COc1nn(-c2ccc(Cl)c(SCC(F)(F)F)c2)c(=O)n1C1CC1` [Example 108] were 90%, 3.91 and 3.84.
Taken in the same sequence, the figures for `COc1nn(-c2ccc(Br)c([S+]([O-])CC(F)(F)F)c2)c(=O)n1C1CC1` (stereo not shown) [Example 110] were 100%, 3.00 and 2.95.
Taken in the same sequence, the figures for `COc1nn(-c2ccc(Br)c(SCC(F)(F)F)c2)c(=O)n1C1CC1` [Example 111] were 100%, 4.01 and 3.93.
The molecule `COc1nn(-c2ccc(C#N)c([S+]([O-])CC(F)(F)F)c2)c(=O)n1C1CC1` (stereo not shown) [Example 118] registered a nematicidal efficacy in the data set with Meloidogyne incognita of 100%. In data set [1], the “logP[a]” value is 2.47. Also, the “logP[b]” value in data set [2] was 2.43.
Taken in the same sequence, the figures for `Cc1ccc(-n2nc(OCC3CC3)n(C3CC3)c2=O)cc1SCC(F)(F)F` [Example 135] were 90%, 4.60 and 4.56.
Taken in the same sequence, the figures for `C=C(C)CCOc1nn(-c2ccc(C)c(SCC(F)(F)F)c2)c(=O)n1C1CC1` [Example 138] were 90%, 5.01 and 4.96.
Taken in the same sequence, the figures for `C=C(C)CCOc1nn(-c2ccc(C)c([S+]([O-])CC(F)(F)F)c2)c(=O)n1C1CC1` (stereo not shown) [Example 139] were 90%, 3.67 and 3.60.
As for `CCC(C)Oc1nn(-c2ccc(C)c(SCC(F)(F)F)c2)c(=O)n1C1CC1` (stereo not shown) [Example 142], the nematicidal efficacy in the data set on Meloidogyne incognita is reported as 90%. Besides, the “logP[a]” value in data set [1] worked out at 5.01. In data set [2], the “logP[b]” value is listed as 4.96.
Taken in the same sequence, the figures for `Cc1ccc(-n2nc(OCC3CC3)n(C)c2=O)cc1SCC(F)(F)F` [Example 145] were 100%, 4.20 and 4.19.
In the case of `Cc1cc(F)c(-n2nc(NC(C)C)n(N)c2=O)cc1[S+]([O-])CC(F)(F)F` (stereo not shown) [Example 225], the efficacy in the data set on Phaedon cochleariae and in the data set on Tetranychus urticae was 100% in each case. The “logP[a]” value in data set [1] is given as 1.87. In data set [2], the “logP[b]” value is given as 1.83.
On to `C=CCn1c(SC)nn(-c2cc([S+]([O-])CC(F)(F)F)c(C)cc2F)c1=O` (stereo not shown) [Example 272], for which the efficacy in the data set with Phaedon cochleariae was determined as 83%; in the data set with Tetranychus urticae, 100%. The “logP[a]” value in data set [1] stood at 2.54. Further, the “logP[b]” value in data set [2] was determined as 2.48.
As for `COC1=CC(=O)N(c2ccc(C(F)(F)F)c([S+]([O-])CC(F)(F)F)c2)C1` (stereo not shown) [Example 321], the efficacy in the data set with Boophilus microplus and in the data set with Phaedon cochleariae was 100% throughout. Moreover, the “logP[a]” value in data set [1] was 2.61. In addition, the “logP[b]” value in data set [2] came to 2.55.
Consider `COCCOC1=CC(=O)N(c2cc(SCC(F)(F)F)c(C)cc2F)C1` [Example 328], for which the efficacy in the data set on Phaedon cochleariae amounted to 100%; in the data set on Tetranychus urticae, 90%. The “logP[a]” value in data set [1] is reported as 2.86. Besides, in data set [2], the “logP[b]” value is given as 2.82.
Regarding `Cc1cc(F)c(N2CC(OC3CCCC3)=CC2=O)cc1SCC(F)(F)F` [Example 329, 4-(Cyclopentyloxy)-1-{2-fluoro-4-methyl-5-[(2,2,2-trifluoroethyl)sulphanyl]phenyl}-1,5-dihydro-2H-pyrrol-2-one], the pest or weed control at 500 g/ha in the data set with Phaedon cochleariae is 100%; in the data set on Tetranychus urticae, 90%. The chromatographic logP is 4.2 in data set [1] (setting [3]), 4.2 in data set [1] (setting [4]) and 4.06 in data set [2].
Regarding `CCOC1=CC(=O)N(c2cc(SCC(F)(F)F)c(C)cc2F)C1` [Example 330], the values for the efficacy with Phaedon cochleariae and with Tetranychus urticae were 100% and 90%, respectively. Besides, the “logP[a]” value in data set [1] is reported as 3.29. Also, the “logP[b]” value in data set [2] was found to be 3.21.
As to `Cc1cc(F)c(N2CC(OC3CCCC3)=CC2=O)cc1[S+]([O-])CC(F)(F)F` (stereo not shown) [Example 336, 4-(Cyclopentyloxy)-1-{2-fluoro-4-methyl-5-[(2,2,2-trifluoroethyl)sulphinyl]phenyl}-1,5-dihydro-2H-pyrrol-2-one], the results for the pest or weed control at 500 g/ha in the data set on Phaedon cochleariae and in the data set with Tetranychus urticae were 83% and 90%, respectively. In addition, the chromatographic logP in data set [1] (setting [3]) was 2.97; in data set [1] (setting [4]), 2.97; in data set [2] it was 2.91.
Turning to `Cc1cc(F)c(-n2ncn(-c3ccc(F)cc3)c2=O)cc1SCC(F)(F)F` [Example 349], the efficacy in the data set on Phaedon cochleariae is on record as 100%; in the data set with Tetranychus urticae, 90%. For the same molecule, in data set [1], the “logP[a]” value came to 3.48. The “logP[b]” value in data set [2] came to 3.40.
Taken in the same sequence, the figures for `Cc1cc(F)c(-n2nc(C)n(-c3ccccc3)c2=O)cc1SCC(F)(F)F` [Example 350] were 83%, 100%, 3.40 and 3.34.
For `Cc1cc(F)c(-n2ncn(-c3ccccc3)c2=O)cc1SCC(F)(F)F` [Example 351], the efficacy in the data set on Phaedon cochleariae and with Tetranychus urticae was 100% in each case. Also, the “logP[a]” value in data set [1] came out at 3.43. In data set [2], the “logP[b]” value is listed as 3.36.
On to `Cc1cc(F)c(-n2nc(OCC(Cl)(Cl)Cl)n(C)c2=O)cc1SCC(F)(F)F` [Example 376], for which the efficacy with Phaedon cochleariae and in the data set with Tetranychus urticae was 100% each time. Also, in data set [1], the “logP[a]” value stood at 4.23. Also, the “logP[b]” value in data set [2] was found to be 4.18.
On to `COc1nn(-c2cc(SCC(F)(F)F)c(C)cc2F)c(=O)n1CC1CC1` [Example 390], for which the efficacy in the data set with Boophilus microplus, with Phaedon cochleariae and with Tetranychus urticae was 100% in each case. Moreover, the “logP[a]” value in data set [1] was 3.64. Moreover, the “logP[b]” value in data set [2] was 3.58.
Regarding `Cc1cc(F)c(-n2nc(OCC(Cl)(Cl)Cl)n(C)c2=O)cc1[S+]([O-])CC(F)(F)F` (stereo not shown) [Example 392], the efficacy came out at 100% in the data set on Boophilus microplus, 100% in the data set on Phaedon cochleariae and 90% with Tetranychus urticae. In addition, in data set [1], the “logP[a]” value was 3.13. The “logP[b]” value in data set [2] was found to be 3.09.
On to `CC(C)(C)COc1nn(-c2cc(SCC(F)(F)F)c(Cl)cc2F)c(=O)n1C1CC1` [Example 394], for which the values for the efficacy in the data set on Phaedon cochleariae and with Tetranychus urticae were 83% and 100%, respectively. Further, in data set [1], the “logP[a]” value is listed as 4.95. Besides, in data set [2], the “logP[b]” value is 4.89.
Taken in the same sequence, the figures for `Cc1cc(F)c(-n2nc(Cl)n(C)c2=O)cc1SCC(F)(F)F` [Example 435] were 83%, 100%, 3.07 and 3.04.
Taken in the same sequence, the figures for `Cc1cc(F)c(-n2nc(Cl)n(C)c2=O)cc1[S+]([O-])CC(F)(F)F` (stereo not shown) [Example 437] were 83%, 90%, 2.00 and 1.98.
Take `Cc1cc(F)c(-n2nnn(C)c2=S)cc1SCC(F)(F)F` [Example 447, 1-{2-Fluoro-4-methyl-5-[(2,2,2-trifluoroethyl)sulphanyl]phenyl}-4-methyl-1,4-dihydro-5H-tetrazole-5-thione]: the pest or weed control at 500 g/ha in the data set with Phaedon cochleariae and with Tetranychus urticae was 100% throughout. Moreover, the chromatographic logP in data set [1] (setting [3]) amounted to 3.51; in data set [1] (setting [4]) it was 3.51; in data set [2], 3.49.

The values are drawn from patent publication US9981940B2, “Aryl sulfide derivatives and aryl sulfoxide derivatives as acaricides and insecticides” (BAYER CROPSCIENCE AKTIENGESELLSCHAFT, priority 2013, dated 2018).
